The values that follow come from ChEMBL document CHEMBL1697731, “Cheminformatics analysis of assertions mined from literature that describe drug-induced liver injury in different species” (Chem Res Toxicol, 2010).

The test system of data set [1] is Hepatotoxicity. As to the kind of experiment: Literature-mined compound from Fourches et al multi-species drug-induced liver injury (DILI) dataset, effect in humans. To be noted: human.
In data set [2] the test system is Hepatotoxicity. Nature of the data set: Literature-mined compound from Fourches et al multi-species drug-induced liver injury (DILI) dataset, effect in rodents. To be noted: rodentia.
The subject of data set [3] is Hepatotoxicity. Nature of the data set: Literature-mined compound from Fourches et al multi-species drug-induced liver injury (DILI) dataset, effect in non-rodents.

`O=C1Nc2ccccc2C1(c1ccc(O)cc1)c1ccc(O)cc1` [OXYPHENISATINE]: the Hepatotoxicity entry with Hepatotoxicity [1] is given as “drug-induced liver injury reported”; with Hepatotoxicity [2], “no drug-induced liver injury reported”; with Hepatotoxicity [3], “no drug-induced liver injury reported”.
Take `O=c1[nH]c(=O)c2c[nH]nc2[nH]1` [OXYPURINOL]: the Hepatotoxicity result is listed as “no drug-induced liver injury reported” with Hepatotoxicity [1], “drug-induced liver injury reported” in the data set with Hepatotoxicity [2] and “no drug-induced liver injury reported” in the data set with Hepatotoxicity [3].
For the molecule `CN(C)[C@@H]1C(O)=C(C(N)=O)C(=O)[C@@]2(O)C(O)=C3C(=O)c4c(O)cccc4[C@@](C)(O)[C@H]3[C@H](O)[C@@H]12` [OXYTETRACYCLINE], the Hepatotoxicity result with Hepatotoxicity [1] is “no drug-induced liver injury reported”; in the data set with Hepatotoxicity [2], “drug-induced liver injury reported”; with Hepatotoxicity [3] it was “no drug-induced liver injury reported”.
For the molecule `O=C(O)/C=C/c1ccc(Cn2ccnc2)cc1` [OZAGREL], the figures for the Hepatotoxicity entry in the data set on Hepatotoxicity [1], in the data set with Hepatotoxicity [2] and in the data set on Hepatotoxicity [3] were “no drug-induced liver injury reported”, “drug-induced liver injury reported” and “no drug-induced liver injury reported”, respectively.
In the case of `CC(=O)O[C@H]1C(=O)[C@@]2(C)[C@H]([C@H](OC(=O)c3ccccc3)[C@]3(O)C[C@H](OC(=O)[C@H](O)[C@@H](NC(=O)c4ccccc4)c4ccccc4)C(C)=C1C3(C)C)[C@]1(OC(C)=O)CO[C@@H]1C[C@@H]2O` [PACLITAXEL], the figures for the Hepatotoxicity entry in the data set on Hepatotoxicity [1] (Liver), in the data set on Hepatotoxicity [2] (Liver) and with Hepatotoxicity [3] (Liver) were “drug-induced liver injury reported”, “drug-induced liver injury reported” and “no drug-induced liver injury reported”, respectively.
As for `COc1ccnc(C[S+]([O-])c2nc3ccc(OC(F)F)cc3[nH]2)c1OC` (centres undefined) [PANTOPRAZOLE], the Hepatotoxicity entry in the data set with Hepatotoxicity [1] was “drug-induced liver injury reported”; in the data set on Hepatotoxicity [2], “no drug-induced liver injury reported”; with Hepatotoxicity [3], “no drug-induced liver injury reported”.
As for `NC[C@@H]1O[C@H](O[C@H]2[C@@H](O)[C@H](O[C@@H]3[C@@H](O)[C@H](N)C[C@H](N)[C@H]3O[C@H]3O[C@H](CO)[C@@H](O)[C@H](O)[C@H]3N)O[C@@H]2CO)[C@H](N)[C@@H](O)[C@@H]1O` [PAROMOMYCIN], the Hepatotoxicity result in the data set on Hepatotoxicity [1] is given as “no drug-induced liver injury reported”; in the data set with Hepatotoxicity [2] it was “drug-induced liver injury reported”; with Hepatotoxicity [3], “no drug-induced liver injury reported”.
Turning to `Fc1ccc([C@@H]2CCNC[C@H]2COc2ccc3c(c2)OCO3)cc1` [PAROXETINE], the Hepatotoxicity result in the data set with Hepatotoxicity [1] is “drug-induced liver injury reported”; in the data set on Hepatotoxicity [2] it was “no drug-induced liver injury reported”; in the data set on Hepatotoxicity [3] it was “no drug-induced liver injury reported”.
Turning to `NC1=NC(=O)C(c2ccccc2)O1` (centres undefined) [PEMOLINE], the values for the Hepatotoxicity result with Hepatotoxicity [1], with Hepatotoxicity [2] and in the data set on Hepatotoxicity [3] were “drug-induced liver injury reported”, “no drug-induced liver injury reported” and “no drug-induced liver injury reported”, respectively.
Consider `Nc1nc2c(ncn2CCC(CO)CO)c(=O)[nH]1` [PENCICLOVIR], for which the Hepatotoxicity entry with Hepatotoxicity [1] is reported as “drug-induced liver injury reported”; in the data set with Hepatotoxicity [2], “no drug-induced liver injury reported”; with Hepatotoxicity [3] it was “no drug-induced liver injury reported”.
On to `CC(C)(S)[C@@H](N)C(=O)O` [PENICILLAMINE], for which the Hepatotoxicity result with Hepatotoxicity [1], in the data set with Hepatotoxicity [2] and in the data set on Hepatotoxicity [3] was “drug-induced liver injury reported” each time.
Consider `CC1(C)S[C@@H]2[C@H](NC(=O)Cc3ccccc3)C(=O)N2[C@H]1C(=O)O` [PENICILLIN G], for which the Hepatotoxicity result in the data set with Hepatotoxicity [1], in the data set on Hepatotoxicity [2] and in the data set with Hepatotoxicity [3] was “drug-induced liver injury reported” in each case.
`CSCC[C@H](NC(=O)[C@H](Cc1c[nH]c2ccccc12)NC(=O)CCNC(=O)OC(C)(C)C)C(=O)N[C@@H](CC(=O)O)C(=O)N[C@@H](Cc1ccccc1)C(N)=O` [PENTAGASTRIN]: the results for the Hepatotoxicity entry in the data set with Hepatotoxicity [1], in the data set on Hepatotoxicity [2] and in the data set on Hepatotoxicity [3] were “drug-induced liver injury reported”, “drug-induced liver injury reported” and “no drug-induced liver injury reported”, respectively.
For the molecule `CCCC(C)C1(CC)C(=O)NC(=O)NC1=O` (centres undefined) [PENTOBARBITAL], the Hepatotoxicity result in the data set with Hepatotoxicity [1], in the data set on Hepatotoxicity [2] and in the data set with Hepatotoxicity [3] was “drug-induced liver injury reported” each time.
For `CC(=O)CCCCn1c(=O)c2c(ncn2C)n(C)c1=O` [PENTOXIFYLLINE], the Hepatotoxicity result with Hepatotoxicity [1], with Hepatotoxicity [2] and with Hepatotoxicity [3] was “drug-induced liver injury reported” each time.
In the case of `CN1CCN(CCCN2c3ccccc3Sc3ccccc32)CC1` [PERAZINE], the Hepatotoxicity entry is reported as “drug-induced liver injury reported” with Hepatotoxicity [1], “no drug-induced liver injury reported” in the data set on Hepatotoxicity [2] and “no drug-induced liver injury reported” in the data set on Hepatotoxicity [3].
Turning to `Clc1c(Cl)c(Cl)c(Cl)c(Cl)c1Cl` [PERCHLOROBENZENE], the Hepatotoxicity entry in the data set on Hepatotoxicity [1] is “drug-induced liver injury reported”; in the data set with Hepatotoxicity [2], “drug-induced liver injury reported”; with Hepatotoxicity [3], “no drug-induced liver injury reported”.
Take `FC(F)(F)C(F)(F)C(F)(F)C(F)(F)C(F)(F)C(F)(F)C(F)(F)C(F)(F)Br` [PERFLUBRON]: the figures for the Hepatotoxicity result with Hepatotoxicity [1], in the data set with Hepatotoxicity [2] and in the data set with Hepatotoxicity [3] were “drug-induced liver injury reported”, “no drug-induced liver injury reported” and “drug-induced liver injury reported”, respectively.
Take `CCC[C@H](N[C@@H](C)C(=O)N1[C@H](C(=O)O)C[C@@H]2CCCC[C@@H]21)C(=O)OCC` [PERINDOPRIL]: the Hepatotoxicity entry with Hepatotoxicity [1] is “drug-induced liver injury reported”; with Hepatotoxicity [2], “drug-induced liver injury reported”; with Hepatotoxicity [3], “no drug-induced liver injury reported”.
Turning to `CC1(C)C(C=C(Cl)Cl)C1C(=O)OCc1cccc(Oc2ccccc2)c1` (centres undefined) [PERMETHRIN], the Hepatotoxicity entry with Hepatotoxicity [1] is reported as “no drug-induced liver injury reported”; in the data set with Hepatotoxicity [2], “drug-induced liver injury reported”; with Hepatotoxicity [3], “no drug-induced liver injury reported”.
Regarding `OCCN1CCN(CCCN2c3ccccc3Sc3ccc(Cl)cc32)CC1` [PERPHENAZINE], the Hepatotoxicity result in the data set on Hepatotoxicity [1] is given as “no drug-induced liver injury reported”; in the data set with Hepatotoxicity [2], “drug-induced liver injury reported”; in the data set on Hepatotoxicity [3] it was “no drug-induced liver injury reported”.
Regarding `CCOc1ccc(NC(C)=O)cc1` [PHENACETIN], the Hepatotoxicity result in the data set with Hepatotoxicity [1] is reported as “drug-induced liver injury reported”; in the data set with Hepatotoxicity [2], “drug-induced liver injury reported”; with Hepatotoxicity [3], “no drug-induced liver injury reported”.
For the molecule `NNCCc1ccccc1` [PHENELZINE], the values for the Hepatotoxicity entry in the data set on Hepatotoxicity [1] (Liver), in the data set with Hepatotoxicity [2] (Liver) and in the data set with Hepatotoxicity [3] (Liver) were “drug-induced liver injury reported”, “drug-induced liver injury reported” and “no drug-induced liver injury reported”, respectively.
Take `[H]/N=C(/N)N/C(=N/[H])NCCc1ccccc1` [PHENFORMIN]: the Hepatotoxicity entry was “no drug-induced liver injury reported” in the data set with Hepatotoxicity [1], “drug-induced liver injury reported” in the data set with Hepatotoxicity [2] and “no drug-induced liver injury reported” with Hepatotoxicity [3].
As to `CCC1(c2ccccc2)C(=O)NC(=O)NC1=O` [PHENOBARBITAL], the Hepatotoxicity entry with Hepatotoxicity [1], with Hepatotoxicity [2] and in the data set with Hepatotoxicity [3] was “drug-induced liver injury reported” throughout.
On to `O=C1OC(c2ccc(O)cc2)(c2ccc(O)cc2)c2ccccc21` [PHENOLPHTHALEIN], for which the Hepatotoxicity entry in the data set on Hepatotoxicity [1] was “no drug-induced liver injury reported”; in the data set on Hepatotoxicity [2], “drug-induced liver injury reported”; in the data set on Hepatotoxicity [3] it was “no drug-induced liver injury reported”.
As for `Oc1ccccc1` [PHENOL], the Hepatotoxicity entry is recorded as “drug-induced liver injury reported” in the data set on Hepatotoxicity [1] (Liver), “drug-induced liver injury reported” with Hepatotoxicity [2] (Liver) and “no drug-induced liver injury reported” with Hepatotoxicity [3] (Liver).
Regarding `CC(COc1ccccc1)N(CCCl)Cc1ccccc1` (centres undefined) [PHENOXYBENZAMINE], the Hepatotoxicity result was “no drug-induced liver injury reported” in the data set with Hepatotoxicity [1], “drug-induced liver injury reported” in the data set on Hepatotoxicity [2] and “no drug-induced liver injury reported” in the data set with Hepatotoxicity [3].
For the molecule `CCC(c1ccccc1)c1c(O)c2ccccc2oc1=O` (centres undefined) [PHENPROCOUMON], the values for the Hepatotoxicity result in the data set with Hepatotoxicity [1], in the data set on Hepatotoxicity [2] and in the data set on Hepatotoxicity [3] were “drug-induced liver injury reported”, “no drug-induced liver injury reported” and “no drug-induced liver injury reported”, respectively.
Turning to `Cc1ccc(N(CC2=NCCN2)c2cccc(O)c2)cc1` [PHENTOLAMINE], the results for the Hepatotoxicity result with Hepatotoxicity [1], in the data set on Hepatotoxicity [2] and in the data set with Hepatotoxicity [3] were “no drug-induced liver injury reported”, “drug-induced liver injury reported” and “drug-induced liver injury reported”, respectively.
With `O=C(O)Cc1ccccc1` [PHENYLACETIC ACID], the Hepatotoxicity result in the data set with Hepatotoxicity [1] is “no drug-induced liver injury reported”; in the data set on Hepatotoxicity [2], “drug-induced liver injury reported”; in the data set on Hepatotoxicity [3], “no drug-induced liver injury reported”.
For the molecule `CNC[C@H](O)c1cccc(O)c1` [PHENYLEPHRINE], the Hepatotoxicity entry with Hepatotoxicity [1], in the data set on Hepatotoxicity [2] and with Hepatotoxicity [3] was “drug-induced liver injury reported” in each case.
Consider `OC(CNc1ccccn1)c1ccccc1` (centres undefined) [PHENYRAMIDOL], for which the Hepatotoxicity entry is given as “drug-induced liver injury reported” in the data set on Hepatotoxicity [1], “no drug-induced liver injury reported” in the data set with Hepatotoxicity [2] and “no drug-induced liver injury reported” in the data set with Hepatotoxicity [3].
